Laboratory results from publication PMC11198769, “Enhancement of transcription efficiency by TAR-Tat system increases the functional expression of human olfactory receptors” (PLOS ONE, 2024).

What was measured:
Format in all cases: cell-based
OR2M3 = target: T1, OR2M3 (Homo sapiens, UniProt Q8NG83); experiment: hOR assay (GloSensor cAMP luciferase), dose-response
T1 construct: Lucy tag (N); expressed in transfected cells; host or cells: Flp-In T-REx-293 cells stably expressing RTP1S, Gαolf and Ric8-b
T1 sequence (Q8NG83 1-312): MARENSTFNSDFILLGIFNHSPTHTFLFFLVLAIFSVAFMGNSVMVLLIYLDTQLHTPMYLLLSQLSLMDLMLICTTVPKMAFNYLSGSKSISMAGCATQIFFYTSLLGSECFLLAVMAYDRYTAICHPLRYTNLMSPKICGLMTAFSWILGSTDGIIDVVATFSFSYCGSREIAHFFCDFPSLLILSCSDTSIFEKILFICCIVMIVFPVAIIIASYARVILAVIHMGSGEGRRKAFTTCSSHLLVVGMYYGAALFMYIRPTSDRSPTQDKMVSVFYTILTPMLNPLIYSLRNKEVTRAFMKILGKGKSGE

OR52N4 = target: T2, OR52N4 (Homo sapiens, UniProt Q8NGI2); experiment: as above; conditions: OR52N4, with or without the TAR-Tat system
T2 construct: Lucy tag (N); expressed in transfected cells; host or cells: Flp-In T-REx-293 cells stably expressing RTP1S, Gαolf and Ric8-b
T2 sequence (Q8NGI2 1-321): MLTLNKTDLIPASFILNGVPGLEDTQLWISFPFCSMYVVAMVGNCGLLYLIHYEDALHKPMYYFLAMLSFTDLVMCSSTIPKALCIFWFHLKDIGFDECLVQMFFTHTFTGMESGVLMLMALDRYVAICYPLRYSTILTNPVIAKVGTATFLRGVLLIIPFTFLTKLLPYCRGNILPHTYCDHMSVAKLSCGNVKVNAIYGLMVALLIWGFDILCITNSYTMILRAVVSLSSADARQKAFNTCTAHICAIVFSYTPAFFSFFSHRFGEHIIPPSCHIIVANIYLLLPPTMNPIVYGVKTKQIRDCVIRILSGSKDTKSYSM

OR8B4 = target: T3, OR8B4 (Homo sapiens, UniProt Q96RC9); experiment: as above; conditions: OR8B4, with or without the TAR-Tat system
T3 construct: Lucy tag (N); FLAG (N); Rho tag (N); expressed in transfected cells; host or cells: Flp-In T-REx-293 cells stably expressing RTP1S, Gαolf and Ric8-b
T3 sequence (Q96RC9 1-309): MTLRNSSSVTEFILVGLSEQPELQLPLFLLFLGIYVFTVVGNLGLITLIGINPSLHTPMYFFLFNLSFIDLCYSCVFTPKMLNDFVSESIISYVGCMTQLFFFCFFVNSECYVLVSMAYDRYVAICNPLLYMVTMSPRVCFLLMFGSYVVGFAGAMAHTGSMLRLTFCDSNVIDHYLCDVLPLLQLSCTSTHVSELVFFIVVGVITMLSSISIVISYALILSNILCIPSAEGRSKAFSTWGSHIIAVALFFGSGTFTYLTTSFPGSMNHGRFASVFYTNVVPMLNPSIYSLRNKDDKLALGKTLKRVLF

OR4K5 = target: T4, OR4K5 (Homo sapiens, UniProt Q8NGD3); experiment: Comprehensive analysis (screening) of hORs against n-hexanal; conditions: OR4K5, 500 μM n-hexanal, with the TAR-Tat system (hOR/pHEK), n = 1
T4 construct: Lucy tag (N); FLAG (N); Rho tag (N); expressed in transfected cells; host or cells: Flp-In T-REx-293 cells stably expressing RTP1S, Gαolf and Ric8-b
T4 sequence (Q8NGD3 1-323): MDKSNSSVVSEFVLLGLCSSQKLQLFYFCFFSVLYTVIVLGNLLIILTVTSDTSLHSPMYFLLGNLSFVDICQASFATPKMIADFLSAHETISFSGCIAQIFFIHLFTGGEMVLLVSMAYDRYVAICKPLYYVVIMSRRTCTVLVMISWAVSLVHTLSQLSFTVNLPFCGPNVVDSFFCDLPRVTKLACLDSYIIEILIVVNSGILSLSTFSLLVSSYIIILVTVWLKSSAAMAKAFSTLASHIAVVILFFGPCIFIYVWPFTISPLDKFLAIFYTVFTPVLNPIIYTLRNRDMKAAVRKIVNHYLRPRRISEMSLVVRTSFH
Description: Transfection was performed as described in the “hOR assay,” but 12.5 ng of 379 hOR plasmids (hOR/pBApo and hOR/pHEK) was transfected with the 12.5 ng pGlosensor^TM-22F cAMP biosensor plasmid (Promega) in 384 plates per well. After loading the GloSensor cAMP substrate and preincubation, the assay buffer was added (30 μL/well). After 10 min of equilibration, luminescence was measured (L0). Then, 50 mM n-hexanal, which was diluted with 10% DMSO/assay buffer, was added (4.7 μL/well). After 9 min, luminescence was measured (L9min). All the L9min values were subtracted by the L0 value (ΔL).

CCCCCC=O [n-hexanal]
mode of action on OR2M3 (OR2M3; OR2M3/pHEK plasmid): inverse agonist
suppression of the active response of OR2M3 to agonist (OR2M3; coadministered with 500 μM 3-mercapto-2-methyl-1-pentanol, OR2M3/pHEK plasmid): suppressed in an n-hexanal concentration-dependent manner
inhibitory effect on the constitutive activity of OR2M3 (luminescence values) (OR2M3; with and without the TAR-Tat system): decreased in an n-hexanal concentration-dependent manner only in the case with the TAR-Tat system
concentration-dependent response to n-hexanal (OR52N4): no concentration-dependent response
concentration-dependent response to n-hexanal (OR8B4): no concentration-dependent response
response value (ΔL) (OR4K5): > 500
